# pKd: −log10 of the molar value. Read-outs that look alike come from different tables or passages of the source.
# Legend:
# Type in all cases: binding
# MpPA14 [1] = biological target: T1, MpPA14 (Marinomonas primoryensis, UniProt A1YIY3); assay: Second glycan array (32 polysaccharides, Max Planck Institute for Marine Microbiology); conditions: for Binding of MpPA14 (RFUs): normalized signal intensity, maximal mean set to 100, cutoff of 5
# Excerpt: To expand the repertoire of glycans beyond glucans and mannans, we performed a second focused microarray composed of 32 polysaccharides found in microbes such as fungi and bacteria, as well as in macroalgae and plants (Fig. 4B). […] In addition, MpPA14 interacted avidly with fucoidans from macroalgae. […] This conformer is not present in the arabinan polymer composed of 1,5-linked α-L-arabino-furanoses, which are then not free to transition to the pyranose form. Similarly, since the MpPA14 binds galactose via the 1,2-diol (β-anomer) (Fig. 3H), the lectin cannot interact with galactans, as they are polymers of β-1,4-D-galactose (Fig. 4B and Table S5).
# The second glycan array was performed at the Max Planck Institute for Marine Microbiology (Bremen, Germany). The array contained duplicates of 32 polysaccharides, including those from macroalgae, bacteria, fungi, and land plants (see details in Table S5 in the supplemental material). N-terminally His-tagged MpPA14 was incubated with the array, and binding of the lectin to the polysaccharides was detected by an anti-His tag secondary antibody conjugated to alkaline phosphatase (Sigma-Aldrich). Microarray probing and quantification were performed as previously described ([45]). Maximal mean (average of the duplicates) signal intensity was set to 100, and the rest of values were normalized accordingly. A cutoff of 5 was applied ([58]).
# MpPA14 [2] = biological target: T1, MpPA14; assay: First glycan array (fungal, bacterial and plant polysaccharide array set 2, Imperial College); conditions: for binding to MpPA14 in first glycan array (in words): GFP-MpPA14; for Binding of MpPA14 (RFUs): GFP-MpPA14 50 μg/ml, Alexa Fluor 647 anti-GFP antibody, mean of duplicates
# MpPA14 [3] = biological target: T1, MpPA14; assay: Dextran-based comparative competition assay (MpPA14)
# Excerpt: To gain insight into the binding specificity of MpPA14, we investigated the relative affinity of various monosaccharides for the lectin by a comparative competition assay ([12]). MpPA14 bound to Superdex resin was competitively released into solution by the progressive addition of free sugars. The released protein concentrations measured by absorbance at 280 nm were plotted as a function of free sugar concentration to produce semiquantitative binding curves (Fig. 1A and B). The apparent dissociation constant (Kdapp) calculated from these binding curves was used as a relative measure of affinity for each assayed sugar (Table 1). […] D-Ribose bound […] more strongly than its derivative 2-deoxy-D-ribose (Kdapp of 6.8 mM as opposed to 18 mM; Fig. 1B and Table 1).
# The dextran resin competition assay was performed as previously described for MhPA14 ([12]). Briefly, Superdex 200 (S200) resin was washed twice with 50 mM Tris-HCl (pH 9), 150 mM NaCl, and 5 mM CaCl2. One ml of 1 mg/ml MpPA14 with green fluorescent protein (GFP) fused to its N terminus (GFP-MpPA14) or VcPA14 labeled with FITC was suspended with 300 μl of equilibrated Superdex 200 (S200) resin. Following an incubation period with gentle mixing, the S200 resin bound with GFP-MpPA14 was pelleted by centrifugation. The pellet was washed twice with 50 mM Tris-HCl (pH 9), 150 mM NaCl, and 5 mM CaCl2, and the A280 of the supernatant from the second wash was used as the baseline reading. Next, after resuspension in the same buffer, aliquots of 1.67 μmol saccharide were sequentially added to the solution six or seven times, with the A280 of the supernatant being measured after each addition to quantify the release of lectin. The final addition of saccharide was […]. Data from the dextran affinity assay were plotted using GraphPad Prism after subtracting the background. Next, the data were fitted to a nonlinear regression of one-site-specific binding, which follows the model y/Bmax = x/(Kd + x), with Bmax as the maximum specific binding and Kd as the equilibrium binding constant.
# T1 sequence (A1YIY3 entry or part of it): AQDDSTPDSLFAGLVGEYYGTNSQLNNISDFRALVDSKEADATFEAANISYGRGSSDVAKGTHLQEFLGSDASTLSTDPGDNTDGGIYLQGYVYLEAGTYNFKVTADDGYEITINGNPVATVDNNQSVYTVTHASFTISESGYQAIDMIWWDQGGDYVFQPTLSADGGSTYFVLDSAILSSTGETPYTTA
Compound,Binding of MpPA14 (RFUs) (MpPA14 [1]),Binding of MpPA14 (RFUs) (MpPA14 [2]),other results
Pachyman (β-(1→3)-D-glucan backbone with 1→6 branches),75,–,binding to MpPA14 in second glycan array (in words) (MpPA14 [1]): significant binding
Mannoprotein (mannose rich),–,0,binding to MpPA14 in first glycan array (in words) (MpPA14 [2]): negligible or no detectable binding
Fucoidan [Fucoidan (Cladosiphon)],100,–,binding to MpPA14 in second glycan array (in words) (MpPA14 [1]): strongest MpPA14-binding fucoidans
Carboxymethyl cellulose (β-(1→4)-D-glucan),28,–,–
β-(1→4)-D-galactan,0,–,binding to MpPA14 in second glycan array (in words) (MpPA14 [1]): did not bind
"O=C[C@H](O)[C@H](O)[C@H](O)CO [Ribose, D-Ribose]",–,–,"pKd (MpPA14 [3]; GFP-MpPA14 bound to Superdex 200 resin released by free sugar, A280, pH 9, 5 mM CaCl2, – = no detectable binding (footnote a), read-out: Kdapp (apparent dissociation constant)): 2.17"
Fucoidan [Fucoidan (Sargassum)],84,–,binding to MpPA14 in second glycan array (in words) (MpPA14 [1]): strongest MpPA14-binding fucoidans
"N -Mannoprotein (α-1→6-mannan backbone with oligomeric α-(1→2)-, α-(1→3)-, and β-(1→2)-mannan branches",–,17438,binding to MpPA14 in first glycan array (in words) (MpPA14 [2]): moderate lectin-glycan interactions
"OC[C@H]1OC(O)[C@@H](O)[C@@H](O)[C@@H]1O (stereo partly drawn) [Mannose, D-Mannose]",–,–,pKd (MpPA14 [3]): 2.77
Xyloglucan,0,–,binding to MpPA14 in second glycan array (in words) (MpPA14 [1]): did not bind
Fucoidan [Fucoidan (Ascophyllum nodosum)],77,–,binding to MpPA14 in second glycan array (in words) (MpPA14 [1]): strongest MpPA14-binding fucoidans
Fucoidan [Fucoidan (Fucus vesiculosus)],29,–,–
Pustulan (β-(1→6)-D-glucan) [Pustulan (Umbilicaria papullosa)],–,1565,–
Fucoidan [Fucoidan (Laminaria)],69,–,–
"NSG (β-(1→3)-D-glucan backbone, β-(1→3)-D-glucan branches)",–,2319,–
Polygalacturonic acid (α-(1→4)-D-galacturonic acid),0,–,–
Alginate,22,–,–
Scleroglucan (β-(1→3)-D-glucan backbone with 1→6 branches),65,–,binding to MpPA14 in second glycan array (in words) (MpPA14 [1]): significant binding
O=C[C@H](O)[C@@H](O)[C@H](O)CO [Xylose],–,–,pKd (MpPA14 [3]): 1.96
"Lentinan (β-(1→3)-D-glucan backbone, β-(1→3)-D-glucan branches)",–,41060,binding to MpPA14 in first glycan array (in words) (MpPA14 [2]): bound most avidly
"GN6-AO (chitin, β-1→4-GlcNAc)",–,178,binding to MpPA14 in first glycan array (in words) (MpPA14 [2]): negligible or no detectable binding
Dextran (α-(1→6)-D-glucan backbone),–,41390,binding to MpPA14 in first glycan array (in words) (MpPA14 [2]): bound most avidly
Ulvan,34,–,–
Porphyran,0,–,binding to MpPA14 in second glycan array (in words) (MpPA14 [1]): did not bind

Compound,Binding of MpPA14 (RFUs) (MpPA14 [1]),Binding of MpPA14 (RFUs) (MpPA14 [2]),other results
Pullulan (α-(1→4)(1→6)-D-glucan),37,58106,binding to MpPA14 in first glycan array (in words) (MpPA14 [2]): bound most avidly
Curdlan (β-(1→3)-D-glucan),–,167,binding to MpPA14 in first glycan array (in words) (MpPA14 [2]): negligible or no detectable binding
β-glucan Mixed β-(1→3)/β-(1→4)-D-glucan [β-glucan (Oat)],–,0,binding to MpPA14 in first glycan array (in words) (MpPA14 [2]): negligible or no detectable binding
"Grifolan (β-(1→3)-D-glucan backbone, highly branched oligomers)",–,39935,binding to MpPA14 in first glycan array (in words) (MpPA14 [2]): bound most avidly
Arabinoxylan,0,–,–
α-(1→5)-L-arabinan,0,–,binding to MpPA14 in second glycan array (in words) (MpPA14 [1]): did not bind
"Mannan (α-(1→6)-D-mannan backbone, α-(1→2)-,α-(1→3)-mannan branches) [Mannan (Saccharomyces cerevisiae)]",0,3808,binding to MpPA14 in second glycan array (in words) (MpPA14 [1]): no detectable interaction; binding to MpPA14 in first glycan array (in words) (MpPA14 [2]): weak binding
Lichenan (β-(1→3)(1→4)-D-glucan) [Lichenan (Icelandic moss)],44,–,–
β-(1→4)-D-xylan,0,–,binding to MpPA14 in second glycan array (in words) (MpPA14 [1]): did not bind
Galactofucan,40,–,–
"Glucurono-XyloMannan (α-(1→3)-Mannan with Xyl, GlcA and Fuc branches)",0,75,binding to MpPA14 in first glycan array (in words) (MpPA14 [2]): negligible or no detectable binding
Pustulan (β-(1→6)-D-glucan) [Pustulan (Lasallia pustulata)],86,–,binding to MpPA14 in second glycan array (in words) (MpPA14 [1]): significant binding
Glucomannan (β-(1→4)-D-mannose and D-glucose backbone),0,–,–
Partially acetylated alginate,0,–,–
Mannan (β-(1→4)-D-mannan) [Mannan (Ivory nut)],15,–,–
Lichenan Mixed β-(1→3)/β-(1→4)-D-glucan [Lichenan (Lichen)],–,349,–
Galactomannan (β-(1→4)-D-mannan backbone),0,–,binding to MpPA14 in second glycan array (in words) (MpPA14 [1]): did not bind
Laminarin (β-(1→3)-D-glucan backbone with 1→6 branches) [Laminarin (Laminaria digitata)],41,–,–
Rhamnogalacturonan I,0,–,–
"PGPGG (β-(1→3)-D-glucan backbone, β-(1→3)-D-glucan branches)",–,30143,–
β-glucan Mixed β-(1→3)/β-(1→4)-D-glucan [β-glucan (Barley)],0,23,binding to MpPA14 in first glycan array (in words) (MpPA14 [2]): negligible or no detectable binding
Laminarin (β-(1→3)-D-glucan backbone with 1→6 branches) [Laminarin (Eisenia bicyclis)],39,–,–
Fucoidan [Fucoidan (Fucus serratus)],53,–,–

# From publication PMC8092209, “Structural Basis of Ligand Selectivity by a Bacterial Adhesin Lectin Involved in Multispecies Biofilm Formation” (mBio, 2021)
